Data from publication PMC8952208, “Synthesis, Antiplasmodial, and Antileukemia Activity of Dihydroartemisinin–HDAC Inhibitor Hybrids as Multitarget Drugs” (Pharmaceuticals, 2022).

Legend:
[1] = system: acetylation of α-tubulin (marker of HDAC6 inhibition); assay: Immunoblotting, acetyl-α-tubulin in K562 cells; assay type: cell-based, human; details: 0.4 µM, 24 h
Experimental: (§1) K562 cells were treated with the indicated concentration of the compounds or vehicle control (DMSO) for 24 h. The recovered cell pellets were lysed with RIPA buffer (50 mM Tris-HCl pH 8.0, 1% Triton X-100, 0.5% sodium deoxycholate, 0.1% SDS, 150 mM sodium chloride, and 2 mM EDTA), supplemented with protease and phosphatase inhibitors (Thermofischer Scientific, Waltham, MA, USA). An equal amount of total protein (20 µg) was resolved by SDS-PAGE and followed by transfer on nitrocellulose membrane (Sigma-Aldrich). PageRuler prestained protein ladder, 10 kDa to 180 kDa (Thermofisher Scientific, Waltham, MA, USA) was used as a protein molecular weight marker.

[2] = system: acetylation of histone H3 (marker of HDAC1 inhibition); assay: Immunoblotting, acetyl-histone H3 in K562 cells; assay type: cell-based, human; details: 0.4 µM, 24 h
Experimental: as §1

## O=C(CCCCCCC(=O)Nc1ccccc1)NO [Vorinostat, vorinostat]
[1]
  acetylation of α-tubulin (immunoblot): caused hyperacetylation of α-tubulin and histone H3
[2]
  acetylation of histone H3 (immunoblot): caused hyperacetylation of α-tubulin and histone H3
